Source: patent US10894788B2, “Inhibitors of cyclin-dependent kinases” (Kinnate Biopharma Inc., priority 2018, dated 2021)

What was measured:
[1] = molecular target: CDK12 (Homo sapiens (Human), UniProt Q9NYV4); experiment: Radiometric protein kinase assay (33PanQinase Activity Assay), Assay Condition B (thiol-free conditions); format: biochemical; settings: thiol-free conditions (1 mM TCEP, glutathione removed)
Method in brief: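 Radiometric 33PanQinase assay under thiol-free conditions: glutathione removed from protein preparations and no thiol reagents in buffer. Ten concentrations, 1×10^−05 M to 3×10^−10 M, singlicate, 1% DMSO final. Residual activity normalised to no-enzyme and no-inhibitor controls; IC50 by least-squares fit.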

[2] = molecular target: CDK12 wt/CycK (Homo sapiens (Human), UniProt Q9NYV4); experiment: Radiometric protein kinase assay (33PanQinase Activity Assay), Assay Condition A (thiol containing conditions); format: biochemical; settings: thiol containing conditions (1.2 mM DTT), ATP 0.3 μM; read-out: CDK12 IC50 Condition A
CDK12 wt/CycK, sequence (Q9NYV4 whole entry): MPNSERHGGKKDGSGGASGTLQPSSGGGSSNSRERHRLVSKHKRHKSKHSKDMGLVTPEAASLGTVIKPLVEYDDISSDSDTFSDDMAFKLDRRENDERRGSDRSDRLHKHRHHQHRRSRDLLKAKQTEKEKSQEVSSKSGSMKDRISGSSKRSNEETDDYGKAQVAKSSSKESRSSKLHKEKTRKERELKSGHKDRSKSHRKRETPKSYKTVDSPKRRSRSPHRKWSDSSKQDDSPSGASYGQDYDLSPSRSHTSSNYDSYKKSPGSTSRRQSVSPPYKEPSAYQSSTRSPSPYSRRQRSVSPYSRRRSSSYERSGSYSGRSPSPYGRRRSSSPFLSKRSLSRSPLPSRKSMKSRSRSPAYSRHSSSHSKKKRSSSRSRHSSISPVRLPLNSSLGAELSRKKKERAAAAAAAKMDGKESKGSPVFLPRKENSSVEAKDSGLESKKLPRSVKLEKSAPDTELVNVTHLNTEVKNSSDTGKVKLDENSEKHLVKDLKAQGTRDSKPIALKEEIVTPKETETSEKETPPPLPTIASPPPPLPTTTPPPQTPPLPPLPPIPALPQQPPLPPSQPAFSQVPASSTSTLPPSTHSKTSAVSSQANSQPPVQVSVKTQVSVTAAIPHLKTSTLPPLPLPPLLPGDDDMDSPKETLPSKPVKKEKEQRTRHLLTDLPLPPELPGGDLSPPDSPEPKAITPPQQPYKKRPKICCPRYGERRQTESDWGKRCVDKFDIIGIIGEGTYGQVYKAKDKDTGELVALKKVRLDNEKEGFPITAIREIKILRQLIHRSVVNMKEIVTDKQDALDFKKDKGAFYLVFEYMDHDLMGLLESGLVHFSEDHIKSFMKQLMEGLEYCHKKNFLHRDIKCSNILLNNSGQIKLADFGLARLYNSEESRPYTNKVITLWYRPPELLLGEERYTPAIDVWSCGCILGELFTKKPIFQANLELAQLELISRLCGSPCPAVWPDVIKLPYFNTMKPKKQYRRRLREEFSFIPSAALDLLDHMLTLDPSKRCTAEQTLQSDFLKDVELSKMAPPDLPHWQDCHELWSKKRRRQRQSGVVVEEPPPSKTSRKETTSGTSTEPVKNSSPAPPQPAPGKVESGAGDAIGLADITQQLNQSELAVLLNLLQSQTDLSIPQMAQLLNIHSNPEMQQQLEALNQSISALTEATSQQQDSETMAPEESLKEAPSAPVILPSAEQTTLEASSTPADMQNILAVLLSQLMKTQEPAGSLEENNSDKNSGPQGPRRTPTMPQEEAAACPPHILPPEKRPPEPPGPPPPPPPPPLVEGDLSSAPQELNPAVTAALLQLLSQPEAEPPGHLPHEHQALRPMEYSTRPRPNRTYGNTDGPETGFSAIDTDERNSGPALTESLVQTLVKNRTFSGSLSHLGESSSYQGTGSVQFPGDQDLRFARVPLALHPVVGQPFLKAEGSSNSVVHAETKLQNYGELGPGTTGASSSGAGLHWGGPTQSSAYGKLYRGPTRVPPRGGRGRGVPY
CDK12 wt/CycK, sequence (O75909 whole entry partner): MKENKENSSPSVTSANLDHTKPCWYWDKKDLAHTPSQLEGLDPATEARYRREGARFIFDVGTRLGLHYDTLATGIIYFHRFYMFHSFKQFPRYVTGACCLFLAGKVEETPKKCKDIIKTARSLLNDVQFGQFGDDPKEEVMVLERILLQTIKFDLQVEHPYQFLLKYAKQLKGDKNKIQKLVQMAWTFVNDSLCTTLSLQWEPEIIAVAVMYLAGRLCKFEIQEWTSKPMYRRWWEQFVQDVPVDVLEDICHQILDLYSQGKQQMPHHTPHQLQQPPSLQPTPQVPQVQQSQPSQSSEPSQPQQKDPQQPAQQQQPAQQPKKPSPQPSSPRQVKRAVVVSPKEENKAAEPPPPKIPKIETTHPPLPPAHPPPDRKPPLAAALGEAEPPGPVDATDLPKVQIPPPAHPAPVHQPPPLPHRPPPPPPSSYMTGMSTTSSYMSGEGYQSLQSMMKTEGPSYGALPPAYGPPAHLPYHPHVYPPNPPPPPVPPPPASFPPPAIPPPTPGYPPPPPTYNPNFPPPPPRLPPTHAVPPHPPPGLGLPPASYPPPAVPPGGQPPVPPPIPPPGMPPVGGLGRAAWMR
Method in brief: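 Recombinant human kinase incubated with [33P]ATP, substrate and compound (10 concentrations, 1×10^−04M to 3×10^−09M, singlicate, 1% DMSO) under thiol-containing buffer conditions, 60 min at 30 °C. 33Pi incorporation counted by scintillation; residual activity normalised to no-inhibitor and no-kinase controls, IC50 derived.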

[3] = test system: panel of 1,151 cancer cell lines; settings: in 52% of 1,151 cancer cell lines; cited from earlier work

CDK12, sequence (Q9NYV4 whole entry): as the sequence (Q9NYV4 whole entry) above
CDK12, sequence (O75909 whole entry partner): as the sequence (O75909 whole entry partner) above

SMILES	IC50 [1] [nM]	IC50 [2] [nM]	IC50 [3] [nM]
C=CC(=O)Nc1ccc(C(=O)N2CC[C@@H](Nc3ncc(Cl)c(NC)n3)C2)cc1 [Example 62, (R)—N-(4-(3-((5-chloro-4-(methylamino)pyrimidin-2-yl)amino)pyrrolidine-1-carbonyl)phenyl)acrylamide]	< 100	< 100	–
CN(C)C/C=C/C(=O)Nc1ccc(C(=O)Nc2cccc(Nc3ncc(Cl)c(-c4c[nH]c5ccccc45)n3)c2)cc1 [THZ1]	–	–	< 200
